The text below walks through data of the SangsterLogP compilation.

Molecules are shown by their SMILES.

One data set can be described thus: method code SF, from DOI: 10.1021/jm00326a002, PMID: 14332653.
Consider `COC(=O)CCCCC(C)=O`, for which the logP was 0.55.

In the case of `COC(=O)CCC(C)=O`, the log partition coefficient (logP) was -0.13.

The nature of another data set: method code SF-AS, from DOI: 10.1021/jm00326a002, PMID: 14332653.
In turn, `BrCCc1ccccc1` had a logP of 3.09. In turn, `C#Cc1ccccc1` yielded a logP of 2.53.

Consider `BrCCCc1ccccc1`, for which the logP was determined as 3.72.

For `N#CCCCc1ccccc1`, the logP is 2.21. `CCCCSC#N` registered a logP of 2.03. The compound `COCCCc1ccccc1` showed a logP of 2.7.

In the case of `NC(=O)CCCc1ccccc1`, the logP stood at 1.41. In turn, `C=CCCC(C)=O` showed a logP of 1.02.

`N#CCCc1ccccc1`: the logP was found to be 1.72. As for `c1ccc2ncccc2c1`, the logP was found to be 2.03.

Take `CN(C)CCCc1ccccc1`: the logP is 2.73.

For the compound `COC(=O)CCc1ccccc1`, the logP was determined as 2.32. Compound `CC(=O)Cc1ccccc1` gave a logP of 1.44. In the case of `NC(=O)CCc1ccccc1`, the logP turned out to be 0.91. For `FCCCc1ccccc1`, the logP was 2.95. For `CC(=O)OCCc1ccccc1`, the logP was 2.3. The same measure, in the same setting: as for `COC(=O)CCCc1ccccc1`, the figure is 2.77; as for `COC(=O)Cc1ccccc1`, 1.83. `CC(=O)CCCc1ccccc1` gave a logP of 2.42. The same measure, in the same setting: then `ClCCc1ccccc1`, with 2.95.

Another data set can be described thus: method code SF-GLC, from DOI: 10.1021/jm00326a002, PMID: 14332653.
`CC(=O)CCC1CC1` registered a logP of 1.5.

For orientation: logP means a log measure of how a compound divides between an organic and an aqueous phase. Low readings indicate lower lipophilicity, high ones higher lipophilicity.
